Measured values reported in ChEMBL document CHEMBL2311517, “Novel route to chaetomellic acid A and analogues: serendipitous discovery of a more competent FTase inhibitor” (Bioorg Med Chem, 2013).
Where a SMILES comes first, the peptide text is derived from it. The star is where a group is joined. Dansyl = CN(C)c1cccc2c(S(=O)(=O)*)cccc12

Tests used:
[1] = Inhibition of rat farnesyltransferase using dansyl-GCVIA as substrate preincubated for 5 mins measured over 300 secs by continuous fluorescence assay
[2] = Inhibition of yeast farnesyltransferase using dansyl-GCVIA as substrate preincubated for 5 mins measured over 300 secs by continuous fluorescence assay; parameters: species or system Saccharomyces cerevisiae
Rattus norvegicus [3] = species on record: Rattus norvegicus; test: Activity of rat farnesyltransferase
Rattus norvegicus [4] = species on record: Rattus norvegicus; test: Ratio of […] to Km for rat farnesyltransferase

Row | kcat (Rattus norvegicus [3]) [s⁻¹] | kcat/Km (Rattus norvegicus [4]) [M⁻¹ s⁻¹] | SMILES | IC50 [1] [µM] | IC50 [2] [µM]
1 |  |  | C=CCCCCCCC/C(C(=O)O)=C(\C)C(=O)O | 0.49 | 13.4
2 |  |  | CCCCSCCCCCCCCC/C(C(=O)O)=C(\C)C(=O)O | 0.19 | 3.5
3 |  |  | CCCCCCCCCCCC/C(C(=O)O)=C(\C)C(=O)O [CHAETOMELLIC ACID C] |  | 4
4 | 0.4 | 170000 | CC(C)C[C@H](NC(=O)[C@@H](NC(=O)[C@H](CS)NC(=O)CNS(=O)(=O)c1cccc2c(N(C)C)cccc12)C(C)C)C(=O)N[C@@H](CO)C(=O)O (Dansyl-GCVLS-OH) |  | 
5 |  |  | CCCCCCCCCCCCCC/C(C(=O)O)=C(\C)C(=O)O | 0.91 | 16
6 | > 0.2 | 120000 | CC[C@H](C)[C@H](NC(=O)[C@@H](NC(=O)[C@H](CS)NC(=O)CNS(=O)(=O)c1cccc2c(N(C)C)cccc12)C(C)C)C(=O)N[C@@H](C)C(=O)O (Dansyl-GCVIA-OH) |  | 
7 |  |  | CCCCCCCCCCCCCCCC/C(C(=O)O)=C(\C)C(=O)O | 2.6 | 65.6
8 |  |  | CC(C)=CCC/C(C)=C/CC/C(C)=C/C/C(C(=O)O)=C(\C)C(=O)O |  | 2.4
